Experimental data published in patent publication US6515025B2, “Use of ethynyl alanine amino diol compounds to inhibit enzymatic conversion of angiotensinogen to angiotensin I” (Pharmacia Corporation, priority 1991, dated 2003).

Assays:
[1] = target: T1, renin (Marmoset Monkey plasma) (Callithrix jacchus, UniProt Q9TSZ1); assay: Renin inhibitor species specificity, marmoset plasma renin activity; type: biochemical
T1 construct: the animal plasma is the source of both the renin substrate and the renin enzyme; from tissue; host or cells: pooled marmoset plasma
T1 sequence (Q9TSZ1 61-400): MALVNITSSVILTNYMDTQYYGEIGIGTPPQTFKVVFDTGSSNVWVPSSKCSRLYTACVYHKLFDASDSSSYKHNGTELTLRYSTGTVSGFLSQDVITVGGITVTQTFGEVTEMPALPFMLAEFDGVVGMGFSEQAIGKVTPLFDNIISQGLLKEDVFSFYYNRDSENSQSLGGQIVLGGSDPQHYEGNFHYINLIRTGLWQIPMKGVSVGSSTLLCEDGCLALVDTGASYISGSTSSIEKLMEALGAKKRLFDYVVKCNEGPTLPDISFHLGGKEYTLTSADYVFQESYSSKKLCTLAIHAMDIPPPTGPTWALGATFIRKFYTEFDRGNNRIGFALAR
Method: Blood was collected in a 10 ml Becton Dickinson vacutainer tube with 0.1 ml of 15% EDTA (K3) solution (15 mg) from normal animals or high renin animals; i.e., those pre-treated with 5 mg/kg of Lasix® intramuscularly 2 times within a 6 hour interval 24 hours prior to bleeding. The blood was then centrifuged at 2500 RPM for 20 minutes and the plasma from the various species respectively pooled, aliquoted and stored in the freezer. The human plasma source was taking a prescription of an angiotensin converting enzyme inhibitor.
The plasma renin activity assay is a modification of the human renin inhibition test in that the animal plasma is the source of both the renin substrate and the renin enzyme. In a total volume of 0.1 ml, 90 mM Tris-acetate buffer, pH 7.5, 12 mM sodium EDTA, 0.012 mg/ml neomycin sulfate, 0.9 mg/ml bovine serum albumin, 1.61 mM phenylmethyl sulfonyl fluoride, 4 mM 8-hydroxyquinoline and 0.09 ml of the animal or human plasmas were incubated for 2 hours at 37° C. in a shaking water bath or at 4° C. in an ice bath in the presence or absence of renin inhibitors. The produced angiotensin I was determined by radioimmunoassay (New England Nuclear kit).
The amount of angiotensin I generated during the 2 hours at 4° C. was usually less than 5% of that activity produced at 37° C.; however, the 4° C. background values were nevertheless subtracted from the 37° C. ones for the 100% activity values. The renin inhibitors were assayed in duplicate using 5 concentrations and the data is expressed as a percent of the 100% total renin activity.

[2] = target: T2, human renin (Homo sapiens, UniProt P00797); assay: Human renin inhibition in vitro; type: biochemical
T2 construct: purchased National Institute for Biological Standards, London
T2 sequence (P00797 67-406): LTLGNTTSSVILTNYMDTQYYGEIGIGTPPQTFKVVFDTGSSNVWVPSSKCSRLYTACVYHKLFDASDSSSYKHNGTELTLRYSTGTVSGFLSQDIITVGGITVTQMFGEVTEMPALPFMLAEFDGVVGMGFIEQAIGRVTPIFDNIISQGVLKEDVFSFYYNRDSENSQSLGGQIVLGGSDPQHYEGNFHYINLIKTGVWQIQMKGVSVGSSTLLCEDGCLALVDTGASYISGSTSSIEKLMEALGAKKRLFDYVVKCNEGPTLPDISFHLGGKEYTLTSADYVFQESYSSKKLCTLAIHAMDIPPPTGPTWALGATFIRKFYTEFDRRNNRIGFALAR
Method: Compounds of Formula I were evaluated as inhibitors of human renin in an in vitro assay, as follows: This human renin inhibition test has been previously described in detail [Papaioannou et al., Clinical and Experimental Hypertension, A7(9), 1243-1257 (1985)]. Human renin was obtained from the National Institute for Biological Standards, London. An incubation mixture was prepared containing the following components: in a total volume of 0.25 mL: 100 mM Tris-acetate buffer at pH 7.4, 25×10^−6 Goldblatt units of renin, 0.05 mL of plasma from human volunteers taking oral contraceptives, 6.0 mM Na-EDTA, 2.4 mM phenylmethyl sulfonyl fluoride, 1.5 mM 8-hydroxyquinoline, 0.4 mg/mL bovine serum albumin (BSA), and 0.024 mg/mL neomycin sulfate. This mixture was incubated for two hours at 37° C. in the presence or absence of renin inhibitors. The produced angiotensin I was determined by radioimmunoassay (New England Nuclear kit). Test compounds to be assayed were dissolved in DMSO and diluted with 100 mM Tris-acetate buffer at pH 7.4 containing 0.5% BSA to the appropriate concentration. The final concentration of organic solvent in the reaction mixture was less than 1%. Control incubations at 37° C. were used to correct for effects of organic solvent on renin activity.

In the case of `C#CC[C@H](NC(=O)C(CC(=O)N(C)CCN(C)C)Cc1ccccc1)C(=O)NC(CC1CCCCC1)[C@@H](O)C(O)CC(C)C` (relative stereo) [Example 1, N1-[1R*-[[[1S,1R*-(cyclohexylmethyl)-2S*,3R*-dihydroxy-5-methylhexyl]amino]carbonyl]-3-butynyl]-N4-[2-(dimethylamino)ethyl]-N4-methyl-2S*-(phenylmethyl)butanediamide], the “% of Total Renin Activity” value ([1]; 0.25 nM) is reported as 94%, the “% of Total Renin Activity” value ([1]; 1 nM) is reported as 75% and the “% of Total Renin Activity” value ([1]; 4 nM) is reported as 42%. For the same molecule, the “% of Total Renin Activity” value ([1]; 16 nM) was 11% and the IC50 [2] was 1 nM.
